Measurements reported in patent publication US8063225B2, “Tricyclic compound derivatives useful in the treatment of neoplastic diseases, inflammatory disorders and immunomodulatory disorders” (Chembridge Corporation, priority 2006, dated 2011).

How the values were obtained:
Alk = target: T1, Alk (Homo sapiens, UniProt Q9UM73); test: Tyrosine kinase assay (Kinase-Glo or AlphaScreen), Alk; settings: biochemical tyrosine kinase assay
T1 construct: 6×His- or GST-tagged kinase domain fragments of the corresponding RTKs expressed in baculovirus system; host or cells: baculovirus system
How it was run: (§1)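 Luminescence of remaining ATP (Kinase-Glo) or anti-phosphotyrosine AlphaScreen proximity signal served as read-out. Reactions held purified tagged kinase domain, poly(Glu-Tyr) substrate and 10 μM ATP at pH 7.5. IC50 values came from non-linear regression fits.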

IGF1 receptor = target: T2, IGF1 receptor (Homo sapiens, UniProt P08069); test: ELISA-based assay of IGF1 receptor autophosphorylation inhibition in cells; assay type: cell-based; settings: IGF1R phosphorylation inhibition in MCF7 cells
T2 construct: MCF7 human breast cancer cells expressing IGF1 receptor; endogenous in cells; host or cells: MCF7 human breast cancer cells
How it was run: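 MCF7 cells or NIH 3T3 overexpressing full-length IGF1R, serum-starved overnight, treated with inhibitor 1 h at 37 °C (1% DMSO), then stimulated 10 min with 100 nM IGF-1. Lysates captured on anti-IGF1R-coated plates; receptor phosphotyrosine detected with 4G10-HRP and TMB, absorbance 450 nm.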

Jak2 = target: T3, Jak2 (Homo sapiens, UniProt O60674); test: Tyrosine kinase assay (Kinase-Glo or AlphaScreen), Jak2; settings: biochemical tyrosine kinase assay
T3 construct: 6×His- or GST-tagged kinase domain fragments of the corresponding RTKs expressed in baculovirus system; host or cells: baculovirus system
How it was run: as §1

T2 sequence (P08069 741-1367 limits assumed): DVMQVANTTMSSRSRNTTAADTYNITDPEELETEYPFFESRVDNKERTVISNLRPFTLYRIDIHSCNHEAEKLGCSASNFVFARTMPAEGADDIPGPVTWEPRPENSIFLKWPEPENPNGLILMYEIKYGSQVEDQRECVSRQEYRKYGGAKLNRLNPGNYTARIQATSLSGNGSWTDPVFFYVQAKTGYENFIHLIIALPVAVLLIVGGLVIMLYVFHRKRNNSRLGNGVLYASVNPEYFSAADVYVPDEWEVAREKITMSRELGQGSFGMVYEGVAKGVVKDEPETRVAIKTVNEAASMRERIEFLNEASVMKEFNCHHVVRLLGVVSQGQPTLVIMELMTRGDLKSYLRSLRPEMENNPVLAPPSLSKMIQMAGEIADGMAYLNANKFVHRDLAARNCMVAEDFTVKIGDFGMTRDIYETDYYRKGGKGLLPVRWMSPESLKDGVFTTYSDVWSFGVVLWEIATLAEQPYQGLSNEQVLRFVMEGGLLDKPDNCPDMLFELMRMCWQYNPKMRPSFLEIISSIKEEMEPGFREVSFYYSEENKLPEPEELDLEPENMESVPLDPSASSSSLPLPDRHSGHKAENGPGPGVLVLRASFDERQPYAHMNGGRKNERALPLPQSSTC
T2 sequence (P08069 31-736 partner limits assumed): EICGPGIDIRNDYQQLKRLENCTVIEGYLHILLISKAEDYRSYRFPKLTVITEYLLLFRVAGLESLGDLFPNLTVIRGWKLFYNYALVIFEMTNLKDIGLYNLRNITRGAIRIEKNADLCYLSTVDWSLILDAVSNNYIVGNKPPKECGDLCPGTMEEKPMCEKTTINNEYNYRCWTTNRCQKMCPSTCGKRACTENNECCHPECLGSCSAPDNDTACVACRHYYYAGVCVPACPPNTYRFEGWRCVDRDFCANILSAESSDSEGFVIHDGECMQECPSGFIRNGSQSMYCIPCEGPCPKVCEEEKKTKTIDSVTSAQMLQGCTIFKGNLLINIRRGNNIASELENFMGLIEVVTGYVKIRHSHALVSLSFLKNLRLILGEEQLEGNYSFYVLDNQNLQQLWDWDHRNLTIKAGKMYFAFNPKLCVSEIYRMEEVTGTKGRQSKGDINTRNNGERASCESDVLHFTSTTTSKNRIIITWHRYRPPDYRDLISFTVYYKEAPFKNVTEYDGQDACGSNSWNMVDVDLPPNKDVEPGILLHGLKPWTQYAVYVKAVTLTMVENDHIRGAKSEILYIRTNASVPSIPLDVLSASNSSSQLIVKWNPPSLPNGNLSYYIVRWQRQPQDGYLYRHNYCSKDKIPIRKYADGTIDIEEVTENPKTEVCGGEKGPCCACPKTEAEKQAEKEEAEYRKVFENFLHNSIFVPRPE
T3 sequence (O60674 849-1124 limits assumed, species assumed): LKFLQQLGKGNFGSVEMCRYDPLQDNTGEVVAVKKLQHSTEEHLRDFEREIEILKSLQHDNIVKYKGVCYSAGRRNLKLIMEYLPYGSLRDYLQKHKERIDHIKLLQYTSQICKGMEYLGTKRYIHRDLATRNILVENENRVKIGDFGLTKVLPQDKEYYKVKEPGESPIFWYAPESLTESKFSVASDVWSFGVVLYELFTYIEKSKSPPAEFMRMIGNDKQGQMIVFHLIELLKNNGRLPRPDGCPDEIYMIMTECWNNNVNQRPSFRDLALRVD
T1 sequence (Q9UM73 1116-1392 limits assumed, species assumed): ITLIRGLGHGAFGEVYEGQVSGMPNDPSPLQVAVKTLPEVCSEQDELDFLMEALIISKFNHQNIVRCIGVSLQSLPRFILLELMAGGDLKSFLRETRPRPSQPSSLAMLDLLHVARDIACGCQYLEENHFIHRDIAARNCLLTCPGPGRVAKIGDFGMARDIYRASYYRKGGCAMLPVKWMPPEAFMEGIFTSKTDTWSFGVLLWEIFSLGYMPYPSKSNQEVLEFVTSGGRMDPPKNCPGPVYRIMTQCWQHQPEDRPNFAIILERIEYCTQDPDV

| IC50 (Alk) [µM] | IC50 (IGF1 receptor) [µM] | IC50 (Jak2) [µM] | SMILES |
| --- | --- | --- | --- |
| 0.5 to 5 | < 0.5 | 0.5 to 5 | Cc1ccc(OC[C@H](O)CNc2cc[nH]c(=O)c2-c2nc3cc4c(cc3[nH]2)C(=O)N(C2CCNCC2)C4=O)c(C)c1 [compound 142] |
| 0.5 to 5 | 0.5 to 5 | < 0.5 | CCc1cc(C)ccc1OC[C@H](O)CNc1cc[nH]c(=O)c1-c1nc2cc3c(cc2[nH]1)CN(C1CCN(C)CC1)C3=O [compound 141] |
| 5 to 15 | 0.5 to 5 | 0.5 to 5 | Cc1ccc2c(ccn2C[C@H](O)CNc2cc[nH]c(=O)c2-c2nc3cc4c(cc3[nH]2)C(=O)N(C2CCN(C)CC2)C4=O)c1 [compound 131] |

Further lines, the compound ahead of its results:

| SMILES | IC50 (Alk) [µM] | IC50 (IGF1 receptor) [µM] | IC50 (Jak2) [µM] |
| --- | --- | --- | --- |
| Cc1ccc(OC[C@H](O)CNc2cc[nH]c(=O)c2-c2nc3cc4c(cc3[nH]2)CN(C2CCN(C)CC2)C4=O)c(C)c1 [compound 130] | 0.5 to 5 | 0.5 to 5 | < 0.5 |
| Cc1cc(C)c(OC[C@H](O)CNc2cc[nH]c(=O)c2-c2nc3cc4c(cc3[nH]2)C(=O)N(C2CCN(C)CC2)C4=O)c(CS(C)(=O)=O)c1 [compound 84] | 0.5 to 5 | 0.5 to 5 | 0.5 to 5 |
| Cc1cc(C)c(OC[C@H](O)CNc2cc[nH]c(=O)c2-c2nc3cc4c(cc3[nH]2)C(=O)N(C2CCN(C)CC2)C4=O)c(C)c1 [compound 98] | 0.5 to 5 | 5 to 15 | 5 to 15 |
| Cc1ccc(OCC(O)CNc2cc[nH]c(=O)c2-c2nc3cc4c(cc3[nH]2)C(=O)N(C2CCN(C)CC2)C4=O)c(C)c1 (stereo not drawn) [compound 15] | 5 to 15 | 0.5 to 5 | 0.5 to 5 |
| Cc1cc(C)n(C[C@H](O)CNc2cc[nH]c(=O)c2-c2nc3cc4c(cc3[nH]2)C(=O)N(C2CCN(C)CC2)C4=O)n1 [compound 92] | > 15 | 0.5 to 5 | 5 to 15 |
| CN1CCC(N2C(=O)c3cc4nc(-c5c(N[C@H](CO)Cc6c[nH]cn6)cc[nH]c5=O)[nH]c4cc3C2=O)CC1 [compound 2] | > 15 | > 15 | > 15 |
